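Each compound was tested at five concentrations against cells in 96-well plates for 48 hours. Here, GI50 denotes the concentration required for 50% inhibition of growth.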 Activity calls are given as the source filed them. Cut-off read from the data, not from the text of the source: active = GI50 up to about 1.1 µM and inactive = higher.
Columns and labels:
Assay in all cases: NCI tumour cell line growth inhibition, 48 h
[1] = tested on: OVCAR-4
[2] = tested on: Malme-3M
[3] = tested on: IGROV-1
[4] = tested on: SR
[5] = tested on: TK-10
[6] = tested on: HOP-92
[7] = tested on: SK-MEL-28
[8] = tested on: NCI-H460
[9] = tested on: SW-620
[10] = tested on: SK-MEL-5
[11] = tested on: SF-539
[12] = tested on: K562
[13] = tested on: HCT-116
[14] = tested on: SK-MEL-2
[15] = tested on: NCI-H226
[16] = tested on: LOX IMVI
[17] = tested on: SF-268
[18] = tested on: HOP-62
[19] = tested on: RXF 393
[20] = tested on: SK-OV-3

Measured: GI50

Oc1cc(CN2CCOCCOCCOCCOCC2)c(O)cc1CN1CCOCCOCCOCCOCC1
inactive: [1] 18.4 µM | [2] > 10 µM | [3] > 78 µM | [4] 20.3 µM | [5] > 56.2 µM | [6] 21.2 µM | [7] 24 µM | [8] > 100 µM | [9] 24.4 µM | [10] > 61.2 µM | [11] > 100 µM | [12] 24.4 µM | [13] 22.9 µM | [14] > 50.7 µM | [15] > 61.5 µM | [16] 24.5 µM | [17] > 56.5 µM | [18] > 100 µM | [19] 23.8 µM | [20] > 100 µM

CNCc1cc(OC)ccc1-c1ccc(OC)c(OC)c1OC
inactive: [1] > 80.9 µM | [2] > 100 µM | [3] > 100 µM | [4] > 100 µM | [5] > 100 µM | [6] > 70.6 µM | [7] > 100 µM | [8] > 92 µM | [9] > 96.4 µM | [10] 64.3 µM | [11] > 100 µM | [12] 51.9 µM | [13] > 94.6 µM | [14] > 100 µM | [15] > 100 µM | [16] > 96.8 µM | [17] > 100 µM | [18] > 100 µM | [19] 69.7 µM | [20] > 100 µM

CCOC(=O)CON=c1c2ccccc2ccc2ccccc12
inactive: [1] > 100 µM | [2] > 100 µM | [3] > 100 µM | [4] > 100 µM | [5] > 100 µM | [6] > 100 µM | [7] > 100 µM | [8] > 100 µM | [9] > 100 µM | [10] > 100 µM | [11] > 100 µM | [12] > 100 µM | [13] > 100 µM | [14] > 100 µM | [15] > 100 µM | [16] > 100 µM | [17] > 100 µM | [18] > 100 µM | [19] > 100 µM | [20] > 100 µM

O=c1[nH]c(=O)n(C2CC(O)C(CO)O2)c2nc3ccc4ccccc4c3nc12 (configuration not stated)
inactive: [1] 67.9 µM | [2] > 100 µM | [3] 47.4 µM | [4] 24.9 µM | [5] > 100 µM | [6] 25.6 µM | [7] 94.2 µM | [8] 21.3 µM | [9] 99.8 µM | [10] 54.1 µM | [11] 92.9 µM | [12] 45.2 µM | [13] > 100 µM | [14] 95.5 µM | [15] 17.8 µM | [16] 35.4 µM | [17] 55.8 µM | [18] 32.4 µM | [19] 56.6 µM | [20] > 100 µM

O=C1CCSCCC(=O)Nc2ccccc2N1
inactive: [1] > 100 µM | [2] > 100 µM | [3] > 100 µM | [4] > 100 µM | [5] > 100 µM | [6] > 100 µM | [7] > 100 µM | [8] > 100 µM | [9] > 100 µM | [10] > 100 µM | [11] > 100 µM | [12] > 100 µM | [13] > 100 µM | [14] > 100 µM | [15] > 100 µM | [16] > 100 µM | [17] > 100 µM | [18] > 100 µM | [19] > 100 µM | [20] > 100 µM

CCc1cccc(C(C)C)c1NC(=O)C(=O)C(Cc1nc2ccccc2nc1O)C(=O)OC (configuration not stated)
inactive: [1] > 100 µM | [2] > 100 µM | [3] > 100 µM | [4] 38.5 µM | [5] > 100 µM | [6] > 100 µM | [7] > 100 µM | [8] > 100 µM | [10] > 100 µM | [11] > 100 µM | [12] > 100 µM | [13] 40.7 µM | [14] > 100 µM | [15] > 100 µM | [16] 45 µM | [17] 67.9 µM | [18] > 100 µM | [19] > 100 µM | [20] > 100 µM

CC(C)(Cl)C(Br)CCC(Br)(CCl)C(Cl)CBr (configuration not stated)
inactive: [1] > 10 µM | [2] > 10 µM | [3] > 10 µM | [4] > 10 µM | [5] > 10 µM | [6] > 10 µM | [7] > 10 µM | [8] > 10 µM | [9] > 10 µM | [10] > 10 µM | [11] > 10 µM | [12] > 10 µM | [14] > 10 µM | [15] > 10 µM | [16] > 10 µM | [18] > 10 µM | [19] > 10 µM | [20] > 10 µM

From ChEMBL document CHEMBL1201862, “PubChem BioAssay data set” (2004)
